Where “and” joins values, the source holds several entries; their conditions need not be identical. Identical values can stand only once. Like-named read-outs stand apart in the source and are kept apart here.
Legend:
Rlig1-AMP = biological target: T1, Rlig1-AMP (Homo sapiens, UniProt Q8N999); test: FRET-based high-throughput screening of inhibitors for Rlig1-AMP; assay type: biochemical; conditions: HTS hits; for Raw data [w Enyzm]: with enzyme; for Raw data [w/o Enzym]: without enzyme
T1 construct: made in house; host or cells: E. coli BL21 (DE3), pET15b-Rlig1
T1 sequence (Q8N999 whole entry): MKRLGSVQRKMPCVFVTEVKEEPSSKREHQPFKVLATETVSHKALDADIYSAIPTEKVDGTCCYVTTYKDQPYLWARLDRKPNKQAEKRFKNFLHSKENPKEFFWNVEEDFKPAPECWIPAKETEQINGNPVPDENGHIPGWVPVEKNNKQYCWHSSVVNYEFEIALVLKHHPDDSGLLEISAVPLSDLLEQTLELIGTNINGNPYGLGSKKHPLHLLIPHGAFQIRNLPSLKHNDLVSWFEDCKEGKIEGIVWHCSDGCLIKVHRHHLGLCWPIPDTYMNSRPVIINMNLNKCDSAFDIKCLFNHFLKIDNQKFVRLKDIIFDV

c-Myc-Max = tested on: c-Myc-Max; design: method as in MedChemExpress; conditions: c-Myc-Max dimerization; ref MedChemExpress; cited from earlier work
B-Raf kinase = biological target: B-Raf kinase; design: method as in MedChemExpress; conditions: ref MedChemExpress; cited from earlier work
G9a = tested on: G9a; design: method as in MedChemExpress; conditions: ref MedChemExpress; cited from earlier work
GLP = tested on: GLP; design: method as in MedChemExpress; conditions: ref MedChemExpress; cited from earlier work
HCT-116 = tested on: HCT-116; design: method as in MedChemExpress; conditions: ref MedChemExpress, read-out: IC50, Pol I-mediated rRNA synthesis; cited from earlier work
A375 = tested on: A375; design: method as in MedChemExpress; conditions: ref MedChemExpress, read-out: IC50, Pol I-mediated rRNA synthesis; cited from earlier work
MIA PaCa-2 cells = tested on: MIA PaCa-2 cells; design: method as in MedChemExpress; conditions: ref MedChemExpress, read-out: IC50, Pol I-mediated rRNA synthesis; cited from earlier work
Pol II = tested on: Pol II; design: method as in MedChemExpress; conditions: ref MedChemExpress; cited from earlier work
Pim-2 = tested on: Pim-2; design: method as in MedChemExpress; conditions: ref MedChemExpress; cited from earlier work
[1] = ref MedChemExpress, cited from earlier work
Pim-1 = tested on: Pim-1; design: method as in MedChemExpress; conditions: ref MedChemExpress; cited from earlier work
λB = biological target: λB; design: method as in MedChemExpress; conditions: in vitro; ref MedChemExpress; read-out: KD, DB1976-λB affinity; cited from earlier work
PU.1 = tested on: PU.1; design: method as in MedChemExpress; conditions: in vitro; ref MedChemExpress; read-out: IC50, PU.1 binding; cited from earlier work
[2] = tested on: transcription factor PU.1; design: method as in MedChemExpress; conditions: ref MedChemExpress; cited from earlier work
FLT3-D835Y = tested on: FLT3-D835Y; design: method as in MedChemExpress; conditions: ref MedChemExpress; cited from earlier work
FLT3 wild type = tested on: FLT3 wild type; design: method as in MedChemExpress; conditions: ref MedChemExpress; cited from earlier work
ALK2 = tested on: ALK2; design: method as in MedChemExpress; conditions: ref MedChemExpress; cited from earlier work
tau protein = biological target: tau protein; design: method as in MedChemExpress; conditions: tau protein aggregation; ref MedChemExpress; cited from earlier work
L-type currents = tested on: L-type currents; design: method as in MedChemExpress; conditions: ref MedChemExpress; cited from earlier work
T-type Ca2+ channels = tested on: T-type Ca2+ channels; design: method as in MedChemExpress; conditions: T-type currents; ref MedChemExpress; cited from earlier work
Shp1 (SH-PTP1) = tested on: Shp1 (SH-PTP1); design: method as in MedChemExpress; conditions: ref MedChemExpress; cited from earlier work
BCL-2 = biological target: BCL-2; design: method as in MedChemExpress; conditions: ref MedChemExpress; cited from earlier work
JAK2 = tested on: JAK2; design: method as in MedChemExpress; conditions: ref MedChemExpress; cited from earlier work
JAK3 = tested on: JAK3; design: method as in MedChemExpress; conditions: ref MedChemExpress; cited from earlier work
JAK1 = tested on: JAK1; design: method as in MedChemExpress; conditions: ref MedChemExpress; cited from earlier work
Tyk2 = tested on: Tyk2; design: method as in MedChemExpress; conditions: ref MedChemExpress; cited from earlier work
NMDA receptor = biological target: NMDA receptor; design: method as in MedChemExpress; conditions: ref MedChemExpress; cited from earlier work
Lyn = tested on: Lyn; design: method as in MedChemExpress; conditions: ref MedChemExpress; cited from earlier work
FGFR1 = tested on: FGFR1; design: method as in MedChemExpress; conditions: ref MedChemExpress; cited from earlier work
Fyn = tested on: Fyn; design: method as in MedChemExpress; conditions: ref MedChemExpress; cited from earlier work
Src = tested on: Src; design: method as in MedChemExpress; conditions: ref MedChemExpress; cited from earlier work
Lck = tested on: Lck; design: method as in MedChemExpress; conditions: ref MedChemExpress; cited from earlier work
FGFR2 = tested on: FGFR2; design: method as in MedChemExpress; conditions: ref MedChemExpress; cited from earlier work
Hck = tested on: Hck; design: method as in MedChemExpress; conditions: ref MedChemExpress; cited from earlier work
VEGFR1 = tested on: VEGFR1; design: method as in MedChemExpress; conditions: ref MedChemExpress; cited from earlier work
Fgr = tested on: Fgr; design: method as in MedChemExpress; conditions: ref MedChemExpress; cited from earlier work
Yes = tested on: Yes; design: method as in MedChemExpress; conditions: ref MedChemExpress; cited from earlier work
[3] = DMSO; ref MedChemExpress; cited from earlier work
VEGFR2 = tested on: VEGFR2; design: method as in MedChemExpress; conditions: ref MedChemExpress; cited from earlier work
PDGFRβ = tested on: PDGFRβ; design: method as in MedChemExpress; conditions: ref MedChemExpress; cited from earlier work
CDK7 = tested on: CDK7; design: method as in MedChemExpress; conditions: ref MedChemExpress; cited from earlier work
BRD4 BD2 = tested on: BRD4 BD2; design: method as in MedChemExpress; conditions: ref MedChemExpress; cited from earlier work
BRD4 BD1 = tested on: BRD4 BD1; design: method as in MedChemExpress; conditions: ref MedChemExpress; cited from earlier work
[4] = difference of raw data w/o and w enzyme
[5] = normalised value of 1-D Distance
[6] = difference of raw data without and with enzyme

Row | Compound | 1-D Distance (Rlig1-AMP; [4]) | 1-D Distance.npi (Rlig1-AMP; normalized value (npi)) | Raw data [w Enyzm] (Rlig1-AMP) | Raw data [w/o Enzym] (Rlig1-AMP) | further results
1 | O=[N+]([O-])c1ccc(Nc2ccccc2-c2ccccc2)c2nonc12 [10074-G5] | 758 | 91.4368 | 1415 | 2173 | IC50 (c-Myc-Max): 146000 nM
2 | CN(C)Cc1ccc(-c2cnn3c(-c4cccc(NC(=O)c5cccc(C(F)(F)F)c5)c4)ccnc23)cc1 [B-Raf IN 1] | 563 | 95.4397 | 7195 | 7758 | IC50 (B-Raf kinase): […]
3 | COc1cc2c(NC3CCN(C)CC3)cc(-c3ccc(C)o3)nc2cc1OCCCN1CCCC1 [CM-272] | 449 | 99.0872 | 6004 | 6453 | IC50 (G9a): […]; IC50 (GLP): 2 nM
4 | Cc1cnc(CNC(=O)c2c(=O)c3ccc(N4CCCN(C)CC4)nc3n3c2sc2ccccc23)cn1.Cl.Cl [CX-5461 dihydrochloride] | 1694 | – | 7215 | 8909 | IC50 (HCT-116): 142 nM; IC50 (A375): 113 nM; 1-D Distance.npi (Rlig1-AMP; [5]): 72.2021; IC50 (MIA PaCa-2 cells): 54 nM; IC50 (Pol II): ≥ 25000 nM
5 | CN1CCCN(C(=O)c2cccc(-c3ccc(/C=C4/C(=O)Nc5ccc(Cl)cc54)o3)c2)CC1 [CX-6258] | 641 | 93.2533 | 5174 | 5815 | IC50 (Pim-2): 25 nM; solubility ([1]; DMSO): […]; IC50 (Pim-1): […]
6 | Cl.Cl.N=C(N)c1ccc2nc(-c3ccc(-c4nc5ccc(C(=N)N)cc5[nH]4)[se]3)[nH]c2c1 [DB1976 (dihydrochloride)] | 102 | 105.279 | 4805 | 4703 | solubility ([1]; DMSO): 62.5 mg/mL and 120.13 mM; solubility ([1]; H2O): 18.33 mg/mL and 35.23 mM; Kd (λB): 12 nM; IC50 (PU.1): 10 nM
7 | CC(C)N=C(N)c1ccc2nc(-c3ccc(OCc4cccc(COc5ccc(-c6nc7ccc(C(N)=NC(C)C)cc7[nH]6)cc5)c4F)cc3)[nH]c2c1 [DB2313] | 699 | – | 5551 | 4852 | PU.1 inhibitor with an apoptosis of [2]: DB2313 is a potent transcription factor PU.1 inhibitor with an apoptosis of 14 nM. DB2313 disrupts the interaction of PU.1 with target gene promoters. DB2313 induces apoptosis of acute myeloid leukemia (AML) cells, and has anticancer effects[1].; 1-D Distance.npi (Rlig1-AMP; [5]): 88.7864
8 | CN1CCC(Nc2nc(Nc3ccc(Oc4ccccc4)cc3)c3c(=O)[nH]cc(Br)c3n2)CC1 [G-749] | 603 | 93.9141 | 7489 | 8092 | IC50 (FLT3-D835Y): 0.6 nM; IC50 (FLT3 wild type): 0.4 nM
9 | c1cc(-c2cnn3cc(-c4ccc(N5CCNCC5)cc4)cnc23)c2cccnc2c1 [LDN-212854] | 1181 | 85.2649 | 7408 | 8589 | solubility ([1]; DMSO): ≥ 30 mg/mL and ≥ 73.80 mM; IC50 (ALK2): 1.3 nM
10 | CN(C)c1ccc2c(c1)Sc1cc(N(C)C)ccc1N2.CS(=O)(=O)O.CS(=O)(=O)O [Leucomethylene blue (mesylate)] | 1844 | 72.1191 | 4383 | 6227 | Ki (tau protein): 120 nM
11 | COCC(=O)O[C@]1(CCN(C)CCCc2nc3ccccc3[nH]2)CCc2cc(F)ccc2[C@@H]1C(C)C.Cl.Cl [Mibefradil (dihydrochloride)] | – | – | 9508 | 11294 | 1-D Distance.npi (Rlig1-AMP; MedChemExpress library): 70.2795; 1-D Distance (Rlig1-AMP; [6]): 1786; IC50 (L-type currents): 18600 nM; IC50 (T-type Ca2+ channels): 2700 nM
12 | O=S(=O)(O)c1ccc2cc(N=Nc3cc(S(=O)(=O)O)c4cccnc4c3O)ccc2c1 [NSC-87877] | 982 | 87.5142 | 1020 | – | solubility ([1]; DMSO): 25 mg/mL and 54.41 mM; IC50 (Shp1 (SH-PTP1)): 355 nM
13 | COC1=CC(c2cc3ccccc3[nH]2)=N/C1=C\c1[nH]c(C)cc1C.CS(=O)(=O)O [Obatoclax (Mesylate)] | 702 | 94.4219 | 1010 | 1712 | Ki (BCL-2): 220 nM
14 | NC(=O)c1cnc2[nH]ccc2c1N[C@@H]1[C@@H]2CC3C[C@H]1C[C@@](O)(C3)C2 [Peficitinib] | 1954 | – | 8816 | 10770 | IC50 (JAK2): 5 nM; IC50 (JAK3): […]; IC50 (JAK1): 3.9 nM; IC50 (Tyk2): 4.8 nM
15 | N[C@@H](Cc1cc(CP(=O)(O)O)cc(-c2ccccc2Cl)c1)C(=O)O [SDZ 220-581] | 1679 | 76.8207 | 24871 | 26550 | pKi (NMDA receptor): SDZ 220-581 is an orally active, potent, competitive NMDA receptor antagonist with pKi value of 7.7[1].; solubility ([1]; DMSO): 8.57 mg/mL and 23.18 mM
16 | Cc1cc(-c2cc(O)ccc2Cl)cc2nnc(Nc3ccc(OCCN4CCCC4)cc3)nc12.Cl [TG 100572 (Hydrochloride)] | – | – | 3376 | 3338 | IC50 (Lyn): 0.4 nM; IC50 (FGFR1): 2 nM; IC50 (Fyn): 0.5 nM; IC50 (Src): 1 nM; IC50 (Lck): 0.1 nM; IC50 (FGFR2): 16 nM; 1-D Distance.npi (Rlig1-AMP; MedChemExpress library): 103.738; 1-D Distance (Rlig1-AMP; [6]): 38; IC50 (Hck): 6 nM; IC50 (VEGFR1): 2 nM; IC50 (Fgr): 5 nM; IC50 (Yes): 0.2 nM; solubility [3]: 25 mg/mL and 48.79 mM; IC50 (VEGFR2): 7 nM; IC50 (PDGFRβ): 13 nM
17 | CN(C)C/C=C/C(=O)Nc1ccc(C(=O)Nc2cccc(Nc3ncc(Cl)c(-c4c[nH]c5ccccc45)n3)c2)cc1.Cl [THZ1 (Hydrochloride)] | 289 | 99.9172 | 6030 | 5741 | IC50 (CDK7): 3.2 nM
18 | Cc1cc(N=Nc2ccc3c(c2)CCC(=O)N3)c(N)cc1O [ZL0420] | 1352 | 80.8903 | 1680 | 3032 | IC50 (BRD4 BD2): 32 nM; IC50 (BRD4 BD1): 27 nM

Reference: article PMC11747885, “Potent inhibitors of the human RNA ligase Rlig1 highlights its role in RNA integrity maintenance under oxidative cellular stress” (Chemical Science, 2025)
